Read-outs that look alike come from different tables or passages of the source.
Assays:
Assay type in all cases: in vivo
[1] = test system: barnyardgrass (Echinochloa crus-galli); experiment: Test B pre-/postemergence plant response; conditions: for pest or weed control at 500 g/ha: 500 g ai/ha
Method in brief: (§1)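 Ratings reflect visual injury versus untreated controls, from 0 for no effect to 100 for complete control, assessed roughly 10 days after treatment. Formulation: non-phytotoxic solvent mix with surfactant; pre- and postemergence sprays on plants grown in loam soil and sand.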

[2] = test system: corn (Zea mays); experiment: Test B pre-/postemergence plant response; conditions: for Corn plant response rating (crop injury, 0 = no effect, 100 = complete kill) at 500 g/ha: 500 g ai/ha
Method in brief: as §1

[3] = test system: giant foxtail (Setaria faberii); experiment: Test B pre-/postemergence plant response; conditions: for pest or weed control at 500 g/ha: 500 g ai/ha
Method in brief: as §1

[4] = test system: pigweed (Amaranthus retroflexus); experiment: Test B pre-/postemergence plant response; conditions: for pest or weed control at 500 g/ha: 500 g ai/ha
Method in brief: as §1

[5] = test system: wheat (Triticum aestivum); experiment: Test B pre-/postemergence plant response; conditions: for plant injury at 500 g/ha: 500 g ai/ha
Method in brief: as §1

[6] = test system: Italian ryegrass (Lolium multiflorum); experiment: Test D pre-/postemergence plant response; conditions: Lolium multiflorum; for pest or weed control at 16 g/ha: 16 g ai/ha; for pest or weed control at 31 g/ha: 31 g ai/ha; for pest or weed control at 62 g/ha: 62 g ai/ha; for pest or weed control at 125 g/ha: 125 g ai/ha
Description: (§2) Seeds of plant species selected from blackgrass (Alopecurus myosuroides), Italian ryegrass (Lolium multiflorum), winter wheat (Triticum aestivum), galium (catchweed bedstraw, Galium aparine), corn (Zea mays), large (Lg) crabgrass (Digitaria sanguinalis), giant foxtail (Setaria faberii), johnsongrass (Sorghum halepense), lambsquarters (Chenopodium album), morningglory (Ipomoea coccinea), yellow nutsedge (Cyperus esculentus), pigweed (Amaranthus retroflexus), ragweed (common ragweed, Ambrosia elatior), soybean (Glycine max), bamyardgrass (Echinochloa crus-galli), oilseed rape (Brassica napus), waterhemp (common waterhemp, Amaranthus rudis), and velvetleaf (Abutilon theophrasti) were planted into a blend of loam soil and sand and treated preemergence with test chemicals formulated in a non-phytotoxic solvent mixture which included a surfactant. At the same time, plants selected from these crop and weed species and also kochia (Kochia scoparia), wild oat (Avena fatua), and chickweed (common chickweed, Stellaria media) were planted in pots containing Redi-Earth® planting medium (Scotts Company, 14111 Scottslawn Road, Marysville, Ohio 43041) comprising spaghnum peat moss, vermiculite, wetting agent and starter nutrients and treated with postemergence applications of test chemicals formulated in the same manner. Plants ranged in height from 2 to 18 cm (1- to 4-leaf stage) for postemergence treatments. Treated plants and controls were maintained in a greenhouse for 13 to 15 days, after which time all species were compared to controls and visually evaluated. Plant response ratings, summarized in Table D, are based on a scale of 0 to 100 where 0 is no effect and 100 is complete control. A dash (-) response means no test result.

[7] = test system: barnyardgrass (Echinochloa crus-galli); experiment: Test D pre-/postemergence plant response; conditions: Echinochloa crus-galli; for pest or weed control at 16 g/ha: 16 g ai/ha; for pest or weed control at 31 g/ha: 31 g ai/ha; for pest or weed control at 62 g/ha: 62 g ai/ha; for pest or weed control at 125 g/ha: 125 g ai/ha
Description: as §2

[8] = test system: blackgrass (Alopecurus myosuroides); experiment: Test D pre-/postemergence plant response; conditions: Alopecurus myosuroides; for pest or weed control at 16 g/ha: 16 g ai/ha; for pest or weed control at 31 g/ha: 31 g ai/ha; for pest or weed control at 62 g/ha: 62 g ai/ha; for pest or weed control at 125 g/ha: 125 g ai/ha
Description: as §2

[9] = test system: corn (Zea mays); experiment: Test D pre-/postemergence plant response; conditions: Zea mays; for Corn plant response rating (crop injury, 0 = no effect, 100 = complete kill) at 62 g/ha: 62 g ai/ha
Description: as §2

[10] = test system: galium (catchweed bedstraw, Galium aparine); experiment: Test D pre-/postemergence plant response; conditions: Galium, post-emergence, Postemergence
Description: as §2

[11] = Preemergence, 125 g ai/ha, 0 to 100 scale (0 no effect, 100 complete control)
[12] = pre-emergence, Preemergence, scale 0 to 100 (0 no effect, 100 complete control), read-out: Plant response rating, Ryegrass, Italian
[13] = post-emergence, Postemergence, scale 0 to 100, 0 no effect, 100 complete control, read-out: Plant response rating, Barnyardgrass
[14] = pre-emergence, Preemergence, scale 0 to 100 (0 no effect, 100 complete control), read-out: Plant response rating, Barnyardgrass
[15] = post-emergence, Postemergence, scale 0 to 100, 0 no effect, 100 complete control, read-out: Plant response rating, Blackgrass
[16] = pre-emergence, Preemergence, scale 0 to 100 (0 no effect, 100 complete control), read-out: Plant response rating, Blackgrass

## FC(F)(F)c1cc(-c2ccccc2Oc2ncc(Cl)cn2)no1 [Compound 200, 5-chloro-2-[2-[5-(trifluoromethyl)-3-isoxazolyl]phenoxy]pyrimidine]
[1]; Echinochloa crus-galli, post-emergence, 240 h, 125 g ai/ha, postemergence, 0 to 100 scale, 0 no effect, 100 complete control, read-out: Plant response rating, Barnyardgrass
  pest or weed control at 125 g/ha: 90%
[1]; Echinochloa crus-galli, post-emergence, 240 h, postemergence, 0 to 100 scale, 0 no effect, 100 complete control, read-out: Plant response rating, Barnyardgrass
  pest or weed control at 500 g/ha: 100%
[1]; Echinochloa crus-galli, pre-emergence, 240 h, Preemergence, 0 to 100 scale where 0 is no effect and 100 is complete control, read-out: Plant response rating, Barnyardgrass
  pest or weed control at 500 g/ha: 100%
[1]; [11]
  Barnyardgrass plant response rating: 100
[2]; [11]
  Corn plant response rating: 20
[2]; Zea mays, post-emergence, 240 h, 125 g ai/ha, postemergence, 0 to 100 scale, 0 no effect, 100 complete control
  Corn plant response rating (crop injury, 0 = no effect, 100 = complete kill) at 125 g/ha: 50%
[2]; Zea mays, post-emergence, 240 h, postemergence, 0 to 100 scale, 0 no effect, 100 complete control
  Corn plant response rating (crop injury, 0 = no effect, 100 = complete kill) at 500 g/ha: 90%
[2]; Zea mays, pre-emergence, 240 h, Preemergence, 0 to 100 scale where 0 is no effect and 100 is complete control
  Corn plant response rating (crop injury, 0 = no effect, 100 = complete kill) at 500 g/ha: 100%
[3]; [11]
  Foxtail, Giant plant response rating: 100
[3]; Setaria faberi, post-emergence, 240 h, 125 g ai/ha, postemergence, 0 to 100 scale, 0 no effect, 100 complete control, read-out: Plant response rating, Foxtail, Giant
  pest or weed control at 125 g/ha: 100%
[3]; Setaria faberi, post-emergence, 240 h, postemergence, 0 to 100 scale, 0 no effect, 100 complete control, read-out: Plant response rating, Foxtail, Giant
  pest or weed control at 500 g/ha: 100%
[3]; Setaria faberi, pre-emergence, 240 h, Preemergence, 0 to 100 scale where 0 is no effect and 100 is complete control, read-out: Plant response rating, Foxtail, Giant
  pest or weed control at 500 g/ha: 100%
[4]; Amaranthus retroflexus, post-emergence, 240 h, 125 g ai/ha, postemergence, 0 to 100 scale, 0 no effect, 100 complete control, read-out: Plant response rating, Pigweed
  pest or weed control at 125 g/ha: 100%
[4]; Amaranthus retroflexus, post-emergence, 240 h, postemergence, 0 to 100 scale, 0 no effect, 100 complete control, read-out: Plant response rating, Pigweed
  pest or weed control at 500 g/ha: 100%
[4]; Amaranthus retroflexus, pre-emergence, 240 h, Preemergence, 0 to 100 scale where 0 is no effect and 100 is complete control, read-out: Plant response rating, Pigweed
  pest or weed control at 500 g/ha: 100%
[4]; [11]
  Pigweed plant response rating: 100
[5]; [11]
  Wheat plant response rating: 20
[5]; Triticum aestivum, post-emergence, 240 h, 125 g ai/ha, postemergence, 0 to 100 scale, 0 no effect, 100 complete control, read-out: Plant response rating, Wheat
  plant injury at 125 g/ha: 60%
[5]; Triticum aestivum, post-emergence, 240 h, postemergence, 0 to 100 scale, 0 no effect, 100 complete control, read-out: Plant response rating, Wheat
  plant injury at 500 g/ha: 100%
[5]; Triticum aestivum, pre-emergence, 240 h, Preemergence, 0 to 100 scale where 0 is no effect and 100 is complete control, read-out: Plant response rating, Wheat
  plant injury at 500 g/ha: 90%
[6]; post-emergence, Postemergence, read-out: Plant response rating (scale 0 to 100), Ryegrass, Italian
  pest or weed control at 16 g/ha: 20%
[6]; post-emergence, Postemergence, scale 0 to 100 (0 no effect, 100 complete control), read-out: Ryegrass, Italian plant response rating
  pest or weed control at 31 g/ha: 25%
[6]; post-emergence, Postemergence, scale 0 to 100, 0 no effect, 100 complete control, read-out: Ryegrass, Italian plant response rating
  pest or weed control at 62 g/ha: 35%
[6]; post-emergence, Postemergence, scale 0 to 100, 0 no effect, 100 complete control, read-out: Plant response rating, Ryegrass, Italian
  pest or weed control at 125 g/ha: 35%
[6]; pre-emergence, Preemergence, read-out: Plant response rating (scale 0 to 100), Ryegrass, Italian
  pest or weed control at 125 g/ha: 90%
[6]; [12]
  pest or weed control at 16 g/ha: 30%
  pest or weed control at 31 g/ha: 80%
  pest or weed control at 62 g/ha: 85%
[7]; post-emergence, Postemergence, read-out: Plant response rating (scale 0 to 100), Barnyardgrass
  pest or weed control at 16 g/ha: 5%
[7]; post-emergence, Postemergence, scale 0 to 100 (0 no effect, 100 complete control), read-out: Barnyardgrass plant response rating
  pest or weed control at 31 g/ha: 10%
[7]; [13]
  pest or weed control at 62 g/ha: 10%
  pest or weed control at 125 g/ha: 15%
[7]; pre-emergence, Preemergence, read-out: Plant response rating (scale 0 to 100), Barnyardgrass
  pest or weed control at 125 g/ha: 100%
[7]; [14]
  pest or weed control at 16 g/ha: 35%
  pest or weed control at 31 g/ha: 95%
  pest or weed control at 62 g/ha: 100%
[8]; post-emergence, Postemergence, read-out: Plant response rating (scale 0 to 100), Blackgrass
  pest or weed control at 16 g/ha: 30%
[8]; post-emergence, Postemergence, scale 0 to 100 (0 no effect, 100 complete control), read-out: Blackgrass plant response rating
  pest or weed control at 31 g/ha: 30%
[8]; [15]
  pest or weed control at 62 g/ha: 40%
  pest or weed control at 125 g/ha: 90%
[8]; pre-emergence, Preemergence, read-out: Plant response rating (scale 0 to 100), Blackgrass
  pest or weed control at 125 g/ha: 90%
[8]; [16]
  pest or weed control at 16 g/ha: 85%
  pest or weed control at 31 g/ha: 90%
  pest or weed control at 62 g/ha: 90%
[9]; post-emergence, Postemergence, 16 g ai/ha, read-out: Plant response rating (scale 0 to 100), Corn
  plant injury at 16 g/ha: 5%
[9]; post-emergence, Postemergence, 31 g ai/ha, scale 0 to 100 (0 no effect, 100 complete control), read-out: Corn plant response rating
  plant injury at 31 g/ha: 5%
[9]; post-emergence, Postemergence, scale 0 to 100, 0 no effect, 100 complete control
  Corn plant response rating (crop injury, 0 = no effect, 100 = complete kill) at 62 g/ha: 10%
[9]; post-emergence, Postemergence, 125 g ai/ha, scale 0 to 100, 0 no effect, 100 complete control
  Corn plant response rating (crop injury, 0 = no effect, 100 = complete kill) at 125 g/ha: 15%
[9]; pre-emergence, Preemergence, 125 g ai/ha, read-out: Plant response rating (scale 0 to 100), Corn
  plant injury at 125 g/ha: 20%
[9]; pre-emergence, Preemergence, 16 g ai/ha, scale 0 to 100 (0 no effect, 100 complete control)
  Corn plant response rating (crop injury, 0 = no effect, 100 = complete kill) at 16 g/ha: 0%
[9]; pre-emergence, Preemergence, 31 g ai/ha, scale 0 to 100 (0 no effect, 100 complete control)
  Corn plant response rating (crop injury, 0 = no effect, 100 = complete kill) at 31 g/ha: 0%
[9]; pre-emergence, Preemergence, scale 0 to 100 (0 no effect, 100 complete control)
  Corn plant response rating (crop injury, 0 = no effect, 100 = complete kill) at 62 g/ha: 10%
[10]; 16 g ai/ha, read-out: Plant response rating (scale 0 to 100), Galium
  pest or weed control at 16 g/ha: 75%
[10]; 31 g ai/ha, scale 0 to 100 (0 no effect, 100 complete control), read-out: Galium plant response rating
  pest or weed control at 31 g/ha: 100%
